Legend:
HDAC = assay: In vitro HDAC-inhibition assay (Fluor de Lys fluorescent substrate); format: biochemical; settings: HDAC enzyme source (e.g. partially purified nuclear extract or immunopurified HDAC complexes)
Experimental: In vitro HDAC-Inhibition Assay:
This assay measures a compound's ability to inhibit acetyl-lysine deacetylation in vitro and was used as both a primary screening method as well as for IC50 determinations of confirmed inhibitors. The assay is performed in vitro using an HDAC enzyme source (e.g. partially purified nuclear extract or immunopurified HDAC complexes) and a proprietary fluorescent substrate/developer system (HDAC Quantizyme Fluor de Lys Fluorescent Activity Assay, BIOMOL). The assay is run in 1,536-well Greiner white-bottom plates using the following volumes and order of addition: • Step 1: Enzyme (2.5 ul) source added to plate (from refrigerated container) • Step 2: Compounds (50 nl) added with pin transfer device • Step 3: Fluor de Lys (2.5 ul) substrate added, incubate at RT, 30 minutes • Step 4: Developer (5 ul) solution is added (containing TSA), to stop reaction • Step 5: Plate Reader—data collection • The deacetylated fluorophore is excited with 360 nm light and the emitted light (460 nm) is detected on an automated fluorometric plate reader (Aquest, Molecular Devices).

HDAC in cells = assay: Cellular IC50 (cellular assays: histone hyperacetylation cytoblot / differential cytotoxicity); format: cell-based; settings: transformed cell lines (e.g. HeLa, A549, MCF-7); cell line not specified
Experimental: These two secondary assays evaluates a compound's ability to inhibit HDAC in cells by measuring cellular histone acetylation levels. The cytoblot facilitates quantitative EC50 information for cellular HDAC inhibition. Transformed cell lines (e.g. HeLa, A549, MCF-7) are cultured under standard media and culture conditions prior to plating.
Cells (approx. 2,500/well) are allowed to adhere 10-24 hours to wells of a 384-well Greiner PS assay plate in media containing 1-5% serum. Cells are treated with appropriate compound and specific concentrations for 0 to 24 hours. Cells are washed once with PBS (60 ul) and then fixed (95% ethanol, 5% acetic acid or 2% PFA) for 1 minute at RT (30 ul). Cells are blocked with 1% BSA for 1 hour and washed and stained with antibody (e.g. anti-Acetylated Histone H3, Upstate Biotechnology), followed by washing and incubation with an appropriate secondary antibody conjugated to HRP or fluorophore. For luminescence assays, signal is generated using Luminol substrate (Santa Cruz Biotechnology) and detected using an Aquest plate reader (Molecular Devices).
Differential Cytotoxicity Assay:
HDAC inhibitors display differential cytotoxicity toward certain transformed cell lines. Cells are cultured according to standard ATCC recommended conditions that are appropriate to each cell type. Compounds were tested for their ability to kill different cell types (normal and transformed) using the ATPlite luminescence ATP detection assay system (Perkin Elmer). Assays are run in either 384-well or 1536-well Greiner PS plates. Cells (30 ul or 5 ul, respectively) are dispensed using either multichannel pipette for 384-well plates, or proprietary Kalypsys bulk liquid dispenser for 1536-well plates. Compounds added using proprietary pin-transfer device (500 nL or 5 nL) and incubated 5 to 30 hours prior to analysis. Luminescence is measured using Aquest plate reader (Molecular Devices).

| SMILES | IC50 (HDAC) | IC50 (HDAC in cells) |
| --- | --- | --- |
| CC(=O)SCC(=O)c1ccc(NS(=O)(=O)c2ccc(OC(F)(F)F)cc2)c(F)c1 [Example 15, Thioacetic acid S-{2-[3-fluoro-4-(4-trifluoromethoxy-benzenesulfonylamino)-phenyl]-2-oxo-ethyl}ester] | < 1000 nM | – |
| CC(=O)SCC(=O)c1ccc(NS(=O)(=O)c2ccc(OC(F)(F)F)cc2)cc1Cl [Example 14, Thioacetic acid S-{2-[2-chloro-4-(4-trifluoromethoxy-benzenesulfonylamino)-phenyl]-2-oxo-ethyl}ester] | < 1000 nM | < 50000 nM |
| CC(=O)SCC(=O)c1ccc(NS(=O)(=O)c2ccc(F)cc2C)cc1 [Example 18, Thioacetic acid S-{2-[4-(4-fluoro-2-methyl-benzenesulfonylamino)-phenyl]-2-oxo-ethyl}ester] | < 1000 nM | < 1000 nM |
| CC(=O)SCC(=O)c1ccc(NS(=O)(=O)c2sc(C)nc2C)cc1 [Example 30] | < 1000 nM | < 1000 nM |
| CC(=O)SCC(=O)c1ccc(NS(=O)(=O)c2cccc(Cl)c2)cc1 [Example 37] | < 1000 nM | < 1000 nM |
| CC(=O)SCC(=O)c1ccc(NS(=O)(=O)c2cn(C)c(C)n2)cc1 [Example 24, Thioacetic acid S-{2-[4-(1,2-dimethyl-1H-imidazole-4-sulfonylamino)-phenyl]-2-oxo-ethyl}ester] | < 1000 nM | < 10000 nM |
| COc1cccc(S(=O)(=O)Nc2ccc(C(=O)CSC(C)=O)cc2)c1 [Example 21, Thioacetic acid S-{2-[4-(3-methoxy-benzenesulfonylamino)-phenyl]-2-oxo-ethyl}ester] | < 1000 nM | < 1000 nM |
| CC(=O)SCC(=O)c1ccc(NS(=O)(=O)c2cccc(C(F)(F)F)c2)cc1 [Example 17, Thioacetic acid S-{2-oxo-2-[4-(3-trifluoromethyl-benzenesulfonylamino)-phenyl]-ethyl}ester] | < 1000 nM | < 10000 nM |
| COC(=O)SCC(=O)c1ccc(NS(=O)(=O)c2ccc(OC(F)(F)F)cc2)cc1 [Example 08, Thiocarbonic acid O-methyl ester S-{2-oxo-2-[4-(4-trifluoromethoxy-benzenesulfonylamino)-phenyl]-ethyl}ester] | < 10000 nM | < 1000 nM |
| CC(=O)SCC(=O)c1ccc(NS(=O)(=O)C(C)C)cc1 [Example 25, Thioacetic acid S-{2-oxo-2-[4-(propane-2-sulfonylamino)-phenyl]-ethyl}ester] | < 1000 nM | – |
| CC(=O)SCC(=O)c1ccc(NS(=O)(=O)c2ccccn2)cc1 [Example 51, Thioacetic acid S-{2-oxo-2-[4-(pyridine-2-sulfonylamino)-phenyl]-ethyl}ester] | < 1000 nM | < 1000 nM |
| CC(=O)SCC(=O)c1ccc(NS(=O)(=O)c2ccc(OC(F)(F)F)cc2)cc1F [Example 47, Thioacetic acid S-{2-[2-fluoro-4-(4-trifluoromethoxy-benzenesulfonylamino)-phenyl]-2-oxo-ethyl}ester] | < 1000 nM | < 1000 nM |
| CCS(=O)(=O)Nc1ccc(C(=O)CSC(C)=O)cc1 [Example 22, Thioacetic acid S-[2-(4-ethanesulfonylamino-phenyl)-2-oxo-ethyl]ester] | < 1000 nM | < 10000 nM |
| CC(=O)SCC(=O)c1ccc2c(c1)CCN2S(=O)(=O)c1ccccn1 [Example 53, Thioacetic acid S-{2-oxo-2-[1-(pyridine-2-sulfonyl)-2,3-dihydro-1H-indol-5-yl]-ethyl}ester] | < 1000 nM | < 1000 nM |
| CC(=O)SCC(=O)c1ccc(NS(=O)(=O)c2ccc(Cl)cc2)cc1 [Example 36] | < 1000 nM | < 1000 nM |
| CC(=O)SCC(=O)c1ccc(NS(=O)(=O)c2ccc(Cl)c(C(F)(F)F)c2)cc1 [Example 20, Thioacetic acid S-{2-[4-(4-chloro-3-trifluoromethyl-benzenesulfonylamino)-phenyl]-2-oxo-ethyl}ester] | < 1000 nM | < 1000 nM |
| CC(=O)SCC(=O)c1ccccc1NS(=O)(=O)c1ccc(OC(F)(F)F)cc1 [Example 40] | < 10000 nM | > 50000 nM |
| CC(=O)SCC(=O)c1ccc(NS(=O)(=O)c2ccc(C)cc2)cc1 [Example 16, Thioacetic acid S-{12-oxo-2-[4-(toluene-4-sulfonylamino)-phenyl]-ethyl}ester] | < 1000 nM | < 1000 nM |

| SMILES | IC50 (HDAC) | IC50 (HDAC in cells) |
| --- | --- | --- |
| CC(=O)SCC(=O)c1ccc(NS(=O)(=O)c2cc(C)cc(C)c2)cc1 [Example 23, Thioacetic acid 2-[4-(3,5-dimethyl-benzenesulfonylamino)-phenyl]-2-oxo-ethyl ester] | < 1000 nM | < 10000 nM |
| CC(=O)SCC(=O)c1ccc(NS(=O)(=O)c2ccc(F)cc2)cc1 [Example 34] | < 1000 nM | < 1000 nM |
| CN(C)c1ccc(C(=O)SCC(=O)c2ccc(NS(=O)(=O)c3ccc(OC(F)(F)F)cc3)cc2)cc1 [Example 07] | < 1000 nM | < 10000 nM |
| COc1cccc(S(=O)(=O)Nc2ccc(C(=O)CSC(C)=O)cn2)c1 [Example 50, Thioacetic acid S-{2-[6-(3-methoxy-benzenesulfonylamino)-pyridin-3-yl]-2-oxo-ethyl}ester] | < 1000 nM | < 1000 nM |
| CC(=O)SCC(=O)c1cccc(NS(=O)(=O)c2ccc(OC(F)(F)F)cc2)c1 [Example 39] | < 1000 nM | < 1000 nM |
| O=C(CSC(=O)c1ccco1)c1ccc(NS(=O)(=O)c2ccc(OC(F)(F)F)cc2)cc1 [Example 04, Furan-2-carbothioic acid S-{2-oxo-2-[4-(4-trifluoromethoxy-benzenesulfonylamino)-phenyl]-ethyl}ester] | < 1000 nM | – |
| CC(=O)SCC(=O)c1ccc(NS(=O)(=O)c2cccnc2)cc1 [Example 52, Thioacetic acid S-{2-oxo-2-[4-(pyridine-3-sulfonylamino)-phenyl]-ethyl}ester] | < 1000 nM | < 10000 nM |
| CC(=O)SCC(=O)c1ccc(NS(=O)(=O)c2ccccc2F)cc1 [Example 35] | < 1000 nM | < 1000 nM |
| NCC(=O)SCC(=O)c1ccc(NS(=O)(=O)c2ccc(OC(F)(F)F)cc2)cc1 [Example 11, Amino-thioacetic acid S-{2-oxo-2-[4-(4-trifluoromethoxy-benzenesulfonylamino)-phenyl]-ethyl}ester] | < 1000 nM | – |
| CC(=O)SCC(=O)c1sc(NS(=O)(=O)c2ccc(OC(F)(F)F)cc2)nc1C [Example 42] | < 50000 nM | – |
| CC(=O)SCC(=O)c1ccc(N(C)S(=O)(=O)c2ccc(OC(F)(F)F)cc2)cc1 [Example 12, Thioacetic acid S-(2-{4-[methyl-(4-trifluoromethoxy-benzenesulfonyl)-amino]phenyl}-2-oxo-ethyl)ester] | – | < 10000 nM |
| CC(=O)SCC(=O)c1ccc(S(=O)(=O)Nc2ccc(OC(F)(F)F)cc2)cc1 [Example 45, Thioacetic acid S-{2-oxo-2-[4-(4-trifluoromethoxy-phenylsulfamoyl)-phenyl]-ethyl}ester] | – | < 10000 nM |
| CC(=O)SCC(=O)c1ccc(N(C(C)C)S(=O)(=O)c2ccc(OC(F)(F)F)cc2)cc1 [Example 13, Thioacetic acid S-(2-{4-[isopropyl-(4-trifluoromethoxy-benzenesulfonyl)-amino]-phenyl}-2-oxo-ethyl)ester] | < 10000 nM | – |
| O=C(CSC(=O)c1cccnc1)c1ccc(NS(=O)(=O)c2ccc(OC(F)(F)F)cc2)cc1 [Example 02, Thionicotinic acid S-{2-oxo-2-[4-(4-trifluorometlioxy-benzenesulfonylamino)-phenyl]-ethyl}ester] | – | < 10000 nM |
| CC(=O)SCC(=O)c1sc(NS(=O)(=O)c2ccc(Cl)c(Cl)c2)nc1C [Example 43, Thioacetic acid-S-{2-[2-(3,4-Dichlorobenzenesulfonylamino)-4-methyl-thiazol-5-yl]-2-oxo-ethyl}-ester] | < 50000 nM | – |
| CC(=O)Oc1ccccc1C(=O)SCC(=O)c1ccc(NS(=O)(=O)c2ccc(OC(F)(F)F)cc2)cc1 [Example 06, Acetic acid 2-{2-oxo-2-[4-(4-trifluoromethoxy-benzenesulfonylamino)-phenyl]-ethylsulfanylcarbonyl}-phenyl ester] | – | < 1000 nM |
| CC(=O)SCC(=O)c1ccc(NS(=O)(=O)c2cc(C)oc2C)cc1 [Example 31] | – | < 10000 nM |

From patent US7381749B2, “Sulfonamides as inhibitors of histone deacetylase for the treatment of disease” (Kalypsys, Inc., priority 2004, dated 2008)
